The text below walks through data of article PMC2374555, “Inhibition of aromatase activity and expression in MCF-7 cells by the chemopreventive retinoid N -(4-hydroxy-phenyl)-retinamide” (British Journal of Cancer, 2000).

The test has as its target T1, aromatase (Homo sapiens, UniProt P11511).
T1 construct: gene CYP19A1; microsomes isolated from JEG-3 human choriocarcinoma cells
T1 sequence (P11511 1-503): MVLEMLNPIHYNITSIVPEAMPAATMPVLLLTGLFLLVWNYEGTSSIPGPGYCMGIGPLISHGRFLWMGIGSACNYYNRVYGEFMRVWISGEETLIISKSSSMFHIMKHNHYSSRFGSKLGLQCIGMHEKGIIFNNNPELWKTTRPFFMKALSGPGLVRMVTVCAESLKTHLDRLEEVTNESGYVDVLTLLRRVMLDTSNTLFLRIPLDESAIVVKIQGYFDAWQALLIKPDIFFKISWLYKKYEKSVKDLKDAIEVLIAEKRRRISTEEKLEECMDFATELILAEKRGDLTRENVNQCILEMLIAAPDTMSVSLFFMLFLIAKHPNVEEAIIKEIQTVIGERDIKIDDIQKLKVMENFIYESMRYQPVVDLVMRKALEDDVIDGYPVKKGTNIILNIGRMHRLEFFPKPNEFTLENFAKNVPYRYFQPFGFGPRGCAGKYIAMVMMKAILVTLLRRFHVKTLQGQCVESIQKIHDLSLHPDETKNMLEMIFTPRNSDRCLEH
The test is described as follows: 3H2O release aromatase assay in JEG-3 microsomes, Lineweaver-Burk kinetics; also intact MCF-7 cells. Format: biochemical.

Consider `CC1=C(/C=C/C(C)=C/C=C/C(C)=C/C(=O)Nc2ccc(O)cc2)C(C)(C)CCC1` [4-HPR, N-(4-hydroxyphenyl)-retinamide], for which half-maximal inhibition (IC50) required 1000 nM.
